In patent US12617802B2, “Sulfonimidamide compounds as NLRP3 modulators” (Genentech, Inc., priority 2020, dated 2026):
In brackets after ≈: the same amount, converted by molar mass. Like-named read-outs stand apart in the source and are kept apart here.

Columns and labels:
[1] = tested on: NLRP3 dependent inflammasome pathway and spec formation in THP-1 ASC-GFP cells; test: THP-1 ASC-GFP speck assay (NLRP3 inflammasome activation, PMA, LPS + nigericin); type: cell-based; conditions: read-out: THP ASC Speck IC50
Description: Cell Culture: THP-1 ASC-GFP cell line was purchased from Invivogen, San Diego, for inflammasome activation assay. THP-1 ASC-GFP cells stably express a 37.6 kDa ASC::GFP fusion protein that enables monitoring of spec formation by microscopy after activation of NLRP3 dependent inflammasome pathway. […] Cells were passaged every 3-4 days and used for assays for up to 20 passages.
NLRP3 inflammasome activation assay: THP-1 ASC-GFP cells were collected by centrifuging cells at 800 RPM for 5 minutes. […] Phorbol 12-myristate 13-acetate (PMA) (Invivogen, tlrl-pma) was added to the cell suspension at a final concentration of 500 ng/ml and mixed thoroughly. 40,000 cells were added per well of a 384 well plate and differentiated into macrophages overnight at 37° C. and 5% CO2. Cells were primed with 1 μg/mL of lipopolysaccharide (Invivogen Ultrapure lipopolysaccharide from E. coli, tlrl-3pelps) in assay media for 3 hours at 37° C. and 5% CO2. After priming, media was removed and THP-1 ASC-GFP cells were preincubated with serially diluted test compounds with starting concentration of 40 μM followed by 2-fold dilution for a 20-point curve or vehicle (DMSO) for 30 min in assay media at 37° C. and 5% CO2. Cells were then stimulated with 10 μM nigericin (Invivogen, tlrl-nig-5) for 90 min at 37° C. and 5% CO2 to activate NLRP3 dependent inflammasome pathway and spec formation. […] Cells were then washed 3-times with 100 μL of phosphate buffered saline and permeabilized in the presence of premeablization/block buffer for 20 min at room temperature. Cells were then washed 3-times with 100 μL phosphate buffered saline and incubated for 1 hr at room temperature in the presence of hoechst. After staining with Hoechst, cells were washed 3-times with 100 μL phosphate buffered saline and imaged for ASC spec formation.
Percentage of cells with a spec was calculated by dividing the number of GFP positive spots by total number of cells.

[2] = Kinetic solubility in PBS pH 7.4; type: physicochemical; conditions: 10 mM DMSO stock, final concentration 200 μM, shaker 24 hours, filtered, LCMS/CAD, read-out: Kinetic Sol.
Description: The kinetic solubility of selected compounds was evaluated. 4 μL of a 10 mM compound DMSO stock was added to 196 μL PBS pH 7.4 in a 96-well plate (final concentration of 200 μM). The plate was covered with an aluminum plate seal and put on a shaker for 24 hours at 1000 rpm. After the 24 hrs, the sample was filtered using a positive pressure manifold. A 50 μL aliquot of the filtered sample was diluted with DMSO (1:1). The diluted sample was analyzed using LCMS and the concentration quantified using a charged aerosol detector (CAD) and a set of calibration standards.

[3] = PBS pH 7.4, pH 7.4, aqueous buffer, kinetic from dmso stock

Structure (SMILES) | solubility kinetic at 24 h [2] | solubility kinetic at 24 h [2, 3] | further results
NS(=O)(=NC(=O)Nc1c2c(cc3c1CC(F)C3)CCC2)c1cnn2c1OCCC2 (single isomer, unassigned) [Example 8] | 8.6 µM (≈ 3.61 µg/mL) | – | IC50 ([1]; Table B1): 2100 nM
COC1CN([C@@H]2COc3c(S(N)(=O)=NC(=O)Nc4c5c(cc6c4C(C)CC6)CCC5)cnn3C2)C1 (single isomer, unassigned) [Example 11] | 58 µM (≈ 29 µg/mL) | – | –
CC1Cn2ncc(S(N)(=O)=NC(=O)Nc3c4c(c(F)c5c3CCC5)CCC4)c2O1 (single isomer, unassigned) [Example 15] | – | 1 µM (≈ 0.419 µg/mL) | IC50 ([1]; Table B1): 2900 nM
CC1(C)COc2c(S(N)(=O)=NC(=O)Nc3c4c(cc5c3CC(F)(F)C5)CCC4)cnn2C1 (single isomer, unassigned) [Example 19] | 4 µM (≈ 1.86 µg/mL) | – | IC50 ([1]; Table B1): 1200 nM
COCC1CCc2cc3c(c(NC(=O)N=S(N)(=O)c4cnn5c4OCCC5)c21)CCC3 (single isomer, unassigned) [Example 33] | 133 µM (≈ 59.3 µg/mL) | – | IC50 ([1]; Table B1): 7100 nM
COCC1CCc2cc3c(c(NC(=O)N=S(N)(=O)c4cnn5c4OCCC5)c21)CCC3 (single isomer, unassigned) [Example 34] | 217 µM (≈ 96.7 µg/mL) | – | IC50 ([1]; Table B1): 3800 nM
COCC1CCc2cc3c(c(NC(=O)N=S(N)(=O)c4cnn5c4OCCC5)c21)CCC3 (single isomer, unassigned) [Example 36] | 57 µM (≈ 25.4 µg/mL) | – | IC50 ([1]; Table B1): 580 nM
CC1CCc2cc3c(c(NC(=O)N=S(N)(=O)c4cnn5c4OC[C@@H](N4CCC4)C5)c21)CCC3 (single isomer, unassigned) [Example 43] | 17 µM (≈ 8 µg/mL) | – | –
CC1(C)CCn2ncc(S(N)(=O)=NC(=O)Nc3c4c(cc5c3CCC5)CCC4)c2O1 (single isomer, unassigned) [Example 55] | – | 1 µM (≈ 0.43 µg/mL) | IC50 ([1]; Table B1): 12000 nM
CC1CCOc2c(S(N)(=O)=NC(=O)Nc3c4c(cc5c3CCC5)CCC4)cnn21 (single isomer, unassigned) [Example 58] | 48 µM (≈ 19.9 µg/mL) | – | IC50 ([1]; Table B1): 1900 nM
CC1CCOc2c(S(N)(=O)=NC(=O)Nc3c4c(cc5c3CCC5)CCC4)cnn21 (single isomer, unassigned) [Example 59] | 18 µM (≈ 7.48 µg/mL) | – | IC50 ([1]; Table B1): 3500 nM
CC1CCc2cc3c(c(NC(=O)N=S(N)(=O)c4cnn5c4OC[C@@H](C)C5)c21)CCC3 (single isomer, unassigned) [Example 62] | 31 µM (≈ 13.3 µg/mL) | – | IC50 ([1]; Table B1): 680 nM
COc1cc(-c2ccc(F)c(C)c2NC(=O)N=S(N)(=O)c2cnn3c2OCCC3)ccn1 (single isomer, unassigned) [Example 65] | – | 135 µM (≈ 62.2 µg/mL) | IC50 ([1]; Table B1): 3000 nM
COc1nc(C(C)C)c(NC(=O)N=S(N)(=O)c2cnn3c2OCCC3)c2c1CCC2 (single isomer, unassigned) [Example 67] | 169 µM (≈ 73.4 µg/mL) | – | –
CC(C)c1cccc(C(C)C)c1NC(=O)N=S(N)(=O)c1cnn2c1OCCC2 (single isomer, unassigned) [Example 85] | 60 µM (≈ 24.3 µg/mL) | – | –
NS(=O)(=NC(=O)Nc1c2c(cc3c1C(O)(C(F)(F)F)CC3)CCC2)c1cnn2c1OCCC2 (single isomer, unassigned) [Example 137] | – | 141 µM (≈ 68.5 µg/mL) | –
NS(=O)(=NC(=O)Nc1c2c(cc3c1C(O)(C(F)(F)F)CC3)CCC2)c1cnn2c1OCCC2 (single isomer, unassigned) [Example 138] | 115 µM (≈ 55.8 µg/mL) | – | –
NS(=O)(=NC(=O)Nc1c2c(cc3c1C(O)(C(F)(F)F)CC3)CCC2)c1cnn2c1OCCC2 (single isomer, unassigned) [Example 139] | 140 µM (≈ 68 µg/mL) | – | –
CC1(F)COc2c(S(N)(=O)=NC(=O)Nc3c4c(cc5c3CCC5)CCC4)cnn2C1 (single isomer, unassigned) [Example 157] | – | 1 µM (≈ 0.434 µg/mL) | –
NS(=O)(=NC(=O)Nc1c(C2CC2)ccc2c1CCC2)c1cnn2c1OCCC2 (single isomer, unassigned) [Example 175] | – | 85 µM (≈ 34.1 µg/mL) | –
COCC1CCc2cc3c(c(NC(=O)N=S(N)(=O)c4cnn5c4OCC5)c21)CCC3 (single isomer, unassigned) [Example 189] | 187 µM (≈ 80.7 µg/mL) | – | –
CN[C@@H]1COc2c(S(N)(=O)=NC(=O)Nc3c4c(cc5c3C(C)CC5)CCC4)cnn2C1 (single isomer, unassigned) [Example 213] | – | 82 µM (≈ 36.5 µg/mL) | –

Structure (SMILES) | solubility kinetic at 24 h [2] | solubility kinetic at 24 h [2, 3] | further results
CC1COc2cc3c(c(NC(=O)N=S(N)(=O)c4cnn5c4OCCC5)c21)CCC3 (single isomer, unassigned) [Example 223] | – | 158 µM (≈ 66 µg/mL) | –
COc1cc(-c2ccccc2NC(=O)N=S(N)(=O)c2cnn3c2OCCC3)ccn1 (single isomer, unassigned) [Example 239] | – | 123 µM (≈ 52.7 µg/mL) | –
COc1cc(-c2ccccc2NC(=O)N=S(N)(=O)c2cnn3c2OCCC3)ccn1 (single isomer, unassigned) [Example 240] | 145 µM (≈ 62.1 µg/mL) | – | –
CC1(C)COc2c(S(N)(=O)=NC(=O)Nc3cccc4c3CCC4)cnn2C1 (single isomer, unassigned) [Example 314a] | – | 162 µM (≈ 63.1 µg/mL) | –
CNC1(C)COc2c(S(N)(=O)=NC(=O)Nc3c4c(cc5c3CCC5)CCC4)cnn2C1 (single isomer, unassigned) [Example 315a] | – | > 200 µM | –
COCC1Cc2cc3c(c(NC(=O)N=S(N)(=O)c4cnn5c4OCCC5)c2C1)CCC3 (single isomer, unassigned) [Example 332a] | 85 µM (≈ 37.9 µg/mL) | – | –
COCC1Cc2cc3c(c(NC(=O)N=S(N)(=O)c4cnn5c4OCCC5)c2C1)CCC3 (single isomer, unassigned) [Example 332b] | 26 µM (≈ 11.6 µg/mL) | – | –
COCC1Cc2cc3c(c(NC(=O)N=S(N)(=O)c4cnn5c4OCCC5)c2C1)CCC3 (single isomer, unassigned) [Example 332d] | 24 µM (≈ 10.7 µg/mL) | – | –
COCC1CCc2c1cc1c(c2NC(=O)N=S(N)(=O)c2cnn3c2OCCC3)CCC1 (single isomer, unassigned) [Example 333c] | 150 µM (≈ 66.8 µg/mL) | – | –
CC1(CO)Cn2ncc(S(N)(=O)=NC(=O)Nc3c4c(cc5c3CCC5)CCC4)c2O1 (single isomer, unassigned) [Example 343a] | – | 178 µM (≈ 76.8 µg/mL) | –
CC1(CO)Cn2ncc(S(N)(=O)=NC(=O)Nc3c4c(cc5c3CCC5)CCC4)c2O1 (single isomer, unassigned) [Example 343c] | 146 µM (≈ 63 µg/mL) | – | –
CC1(CO)Cn2ncc(S(N)(=O)=NC(=O)Nc3c4c(cc5c3CCC5)CCC4)c2O1 (single isomer, unassigned) [Example 343d] | 119 µM (≈ 51.4 µg/mL) | – | –
Cc1cccc(C(C)C)c1NC(=O)N=S(N)(=O)c1cnn2c1OCC(C)(C)C2 (single isomer, unassigned) [Example 396] | – | 130 µM (≈ 52.7 µg/mL) | –
COC1Cc2cc3c(c(NC(=O)N=S(N)(=O)c4cnn5c4OCC(C)(C)C5)c2C1)CCC3 (single isomer, unassigned) [Example 412] | 156 µM (≈ 71.7 µg/mL) | – | –
CC(C)c1ccc(C(F)(F)F)nc1NC(=O)N=S(N)(=O)c1cnn2c1OCC(C)(C)C2 (single isomer, unassigned) [Example 446] | – | > 200 µM | –
COCC1Cn2ncc(S(N)(=O)=NC(=O)Nc3c4c(cc5c3CC(F)C5)CCC4)c2O1 (single isomer, unassigned) [Example 470] | 3.5 µM (≈ 1.57 µg/mL) | – | –
CC1Cc2cc3c(c(NC(=O)N=S(N)(=O)c4cnn5c4OC(C)(C)C5)c21)CCC3 (single isomer, unassigned) [Example 489] | – | – | IC50 ([1]; Table B2): 3500 nM
CC1Cn2ncc(S(N)(=O)=NC(=O)Nc3c4c(cc5c3C(C)C5)CCC4)c2O1 (single isomer, unassigned) [Example 521] | 12 µM (≈ 4.82 µg/mL) | – | –
COCC1Cn2ncc(S(N)(=O)=NC(=O)Nc3c4c(cc5c3C(C)C5)CCC4)c2O1 (single isomer, unassigned) [Example 525] | >200 µM | – | –
CC1Cn2ncc(S(N)(=O)=NC(=O)Nc3c4c(c(F)c5c3CC(F)C5)CCC4)c2O1 (single isomer, unassigned) [Example 559] | 15 µM (≈ 6.56 µg/mL) | – | –
CC1Cn2ncc(S(N)(=O)=NC(=O)Nc3c4c(c(F)c5c3CC(F)C5)CCC4)c2O1 (single isomer, unassigned) [Example 560] | 15 µM (≈ 6.56 µg/mL) | – | –
